Patent US20070172529A1, “Herbal formulation for the treatment of piles” (COUNCIL OF SCIENTIFIC AND INDUSTRIAL RESEARCH, priority 2004, published 2007)
Marks after values point to notes of the source that are not given here.

Columns and labels:
Bacillus Substilis = conditions: against Bacillus Substilis; cited from earlier work
force-induced pain = assay: Analgesy-meter force-induced pain in rats; format: in vivo, rat; conditions: mean ± SEM, six rats
Protocol: Analgesy-meter induced pain: The analgesic effect of the powder was tested in rat of either sex, using an Ugo Basile Analgesy meter (No. 32725) (21025 Comerio-[…], Italy). This method involves the application of force to the paw of the rat using the Analgesy-meter, which exerts a force that increases at a constant rate. The rat was gently placed between the plinth and plunger. The instrument was switched on and a constant motor rate was used to drive the plunger on to the paw of the rat. When the rat struggles, the instrument is switched off and the force at which the animal felt pain was read on a scale calibrated in grams ×10 by a pointers. The pre-treatment and the after treatment weight causing pain was determined for each rat. […]

[1] = tested on: λ carrageenin induced edema; assay: λ carrageenin induced paw edema in rats; format: in vivo, rat
Protocol: Carrageenin induced paw edema: Rats were injected with 0.1 ml of 1% λ carrageenin (St.-Louis, Mo.) into the subplantar side of the left hind paw. The paw was marked with ink at the level of the lateral malleolus and dipped in perspex cell up to this mark. The paw volume was measured with an Ugo Basile Plethysmometer (No: 61402) (7140 Comerio-varese, Italy) immediately and 3 h after injecting the λ carrageenin suspension. […] Significant reductions in the paw volume compared to vehicle treated control animals were considered as anti-inflammatory response. Percentage inhibition of oedema was calculated as follows: % Inhibition=(1−VT/VC)×100
VT=Paw volume in drug treated rats, VC=Paw volume in control group of rats.

interleukin-1 production = conditions: Chem. Pharm. Bull. 1992, 40,2041; cited from earlier work

C[C@@H]1O[C@@H](Oc2ccc(CN=C=S)cc2)[C@H](O)[C@H](O)[C@H]1O [4-(α-L Rhamnosyloxy benzylisothiocynate]
Antibacterial activity (Bacillus Substilis): exhibited antibacterial activity

CC(C)Cc1ccc(C(C)C(=O)O)cc1 (stereo not drawn) [Ibuprofen]
Weight causing pain (g) After Administration (force-induced pain; 100 mg/kg): 161.1 ± 7.9^b g
Weight causing pain (g) Before Administration (force-induced pain; pre-treatment value of 100 mg/kg group): 84.7 ± 5.7 g

COc1ccc2c(c1)c(CC(=O)O)c(C)n2C(=O)c1ccc(Cl)cc1 [Indomethacin]
Paw volume (ml) at 3h λ carrageenin ([1]; 100 mg/kg, mean ± SEM, six rats): 0.15 ± 0.02 mL
inhibition at 100 mg/kg ([1]; Rattus norvegicus, 3 h after λ carrageenin, vs control): 84.7%

Pongapipnone A
Inhibition of interleukin-1 production (interleukin-1 production): inhibited interleukin-1 production
